Paper PMC11862924, “Phenylpyrazoles as Inhibitors of the m^6A RNA-Binding Protein YTHDF2” (JACS Au, 2025)

System: K562 cells
Assay: Cell cycle analysis by flow cytometry
Type: cell-based, human
Settings: 24 h
Description: K562 cells were seeded in 6-well plates (1.0 × 10^6 cells/well) and incubated overnight. Compounds of different concentrations were added to the 6-well plates. The cell cycle analysis kit (SIGMA-Aldrich, MAK344) was used after incubation for 24 h. The cells were detached with trypsin and washed with 2 mL of ice-cold cell cycle assay buffer for each sample. The supernatant was removed after centrifugation. The cells were fixed by adding 2 mL of ice-cold 70% ethanol (added dropwise while vortexing) to the cell pellet and then placed on ice for 30 min. The supernatant was removed after centrifuging at 400 × g for 5 min. Cells were washed with a cell cycle assay buffer (2 mL). Cells were resuspended completely in 500 μL of staining solution and were protected from light exposure. After being incubated at room temperature for 30 min, each sample was analyzed by flow cytometry (Sony Biotechnology Cell Sorter SH800S) with proper machine settings. The data were analyzed by cell sorter software (Sony Biotechnology).

Compound: O=C(O)c1ccc(-n2cc(C(=O)c3c(O)ccc4ccccc34)cn2)cc1 [CK-75]
- cells in the G0/G1 phase (25 μM): > 70%
- cell cycle arrest (in words): induced cell cycle arrest in the G0/G1 phase concentration-dependently
